Patent publication EP0623608B1, “BENZOPYRAN DERIVATIVE, PRODUCTION THEREOF, AND PHARMACEUTICAL PREPARATION CONTAINING THE SAME AS ACTIVE INGREDIENT” (TEIJIN LIMITED, priority 1992, dated 1993)

Molecular target: ACAT enzyme
Assay: Measurement of ACAT enzyme inhibitory activity of rabbit small intestinal microsomes
Type: biochemical
Conditions: rabbit small intestinal mucosa microsome fraction 0.5 mg/ml, 43 µM oleoyl CoA containing [1-14C]oleoyl CoA, 37°C for 10 minutes
Description: Measurement of ACAT enzyme inhibitory activity (measurement of ACAT enzyme inhibitory activity of rabbit small intestinal microsomes
Rabbit small intestinal mucosa microsome was prepared and the ACAT enzyme activity was measured by the method of Salone and Field (reference: Biochemica et Biophysica, vol. 712, p. 557 (1982)) with a slight modification.
Using a 40 mM phosphate buffer containing 30 mM EDTA, 50 mM KCl, and 1.0M sucrose and having a pH of 7.4 (buffer A), rabbit small intestinal mucosa was homogenized. This was centrifuged at 10,000 x g and 4°C for 30 minutes to provide a supernatant. The supernatant was further centrifuged at 105,000 x g and 4°C for 1 hour to provide a precipitate. The precipitate was resuspended in the buffer A and used as the microsome fraction.
To the buffer A containing 43 µM bovine serum albumin and 0.5 mg/ml microsome fraction was added various concentrations of each specimen compound (compounds obtained in Examples 1, 3 to 5, and 7 to 14) in dimethylsulfoxide in amounts of 1% v/v. The mixture was heated at 37°C for 5 minutes. […]
0.111 kBq of [^3H] cholesteryl oleate and IN hydrochloric acid were added, and the mixture was stirred. The cholesteryl oleate extracted into the chloroform layer was isolated by a thin layer chromatography, and the radioactivity was measured as the ACAT activity.

## CCCCCCCCCCOc1ccc2c(=O)ccoc2c1NC(=O)C(C)(C)C [Example 8, N-(7-decyloxyl-4-oxo-4H-1-benzopyran8-yl)-2,2-dimethylpropanamide]
  IC50: 130 nM
